Data from patent publication US10064911B2, “Peptides for treating cancer” (The Board of Trustees of the University of Illinois, priority 2015, dated 2018).
Entries after “also recorded” stand apart in the source; their conditions may differ.

Experiments:
HMVECs = assay: Thrombin-induced Ca2+ release from ER stores in HMVECs (Fura 2-AM); type: cell-based; conditions: pre-treatment with 5 μg/ml for 20 min prior to thrombin stimulation
Method: (FIG. 4A) HMVECs pre-treated with AP-attached IP3R3 peptide or control (AP) peptide were loaded with Fura 2-AM and 340/380 ratio was calculated after stimulation of cells with thrombin (50 nM) in the absence and in the presence of extracellular Ca^2+. Arrow, time of thrombin addition. […] The increase is normalized to control non-treated cells from the same experiment (n=4).
[…] contains EB binding consensus motif, Ser/Thr-x-Ile-Pro (SxIP) (SEQ ID NO: 5). […] The role of the interaction between EB3 and IP3R3 was recently described by Geyer et al., Cell Rep 12(1):79-89; 2015. […] The effects of IP3R3 peptide and taxol were compared in regulating Ca^2+ release.

[1] = test system: MDA-MB-231 human breast cancer cells; assay: Triple negative breast cancer xenograft: tumor growth and neovascularization; type: in vivo, Nude mice; conditions: for number of vessels outside of the tumor: H&E staining
Excerpt: FIG. 8A plots tumor growth curve in xenograft model; mean is shown; n=8 mice per group. FIG. 8B plots the number of vessels per area counted outside of the tumor; n=25 fields/mouse; N=5 mice; *, p<0.05; **, p<0.01.
The effect of EBIN on growth rate of triple negative (estrogen receptor [ER], progesterone receptor [PR] and human epidermal growth factor receptor-2 [HER-2] are not expressed in this cell line) human breast cancer cells using a xenograft model was investigated. Nude mice (n=8 mice per group) were injected with 3×10^6 MDA-MB-231 human breast cancer cells into the upper left mammary fat pad. All mice developed the tumor by day 13. At that time point, mice were randomized and divided by 5 groups and each group received the treatment. Study was terminated at day 24 when the tumor reached 2000 mm^3 in size. The treatment with control peptide and EBIN was performed daily for 7 days. EBIN and control peptide were delivered via tail vein injection. Control peptide was injected at 5 μM/kg body weight. EBIN was injected at 1 μM/kg and 5 μM/kg body weight.
Treatment with taxol was performed via intraperitoneal injection at 10 μM/kg body weight for 4 days. Tumor size was measured 3 times a week.
To correlate the effect of EBIN treatment with tumor neovascularization, tumor tissue was collected, fixed and stained with hematoxylin and eosin (H&E). Number of […] outside of the tumor mass was scored and normalized per area.

[2] = test system: blood vessels ingrowth into matrigel plugs; assay: In vivo ectopic matrigel plug angiogenesis; design: species or system mice; conditions: for number of vessels / vessel formation in matrigel plugs: matrigel with heparin and VEGF, plugs removed at 96 hours, HE staining
Method: (§1) Group 1 was treated with control peptide and group 3 was treated with Myr-EBIN at 0, 36 and 60 hrs; group 2 received only 36 and 60 hour treatment. […] Scale bar, 200 μm.
EBIN effect on blood vessels in growth in an in vivo model of ectopic matrige angiogenesis was also investigated. Blood vessel in growth matrigel was pre-mixed with heparin and VEGF but not with endothelial cells, and i.p. injected into low abdomen of mice. There were two 400 μL plugs per mouse. […] These vessels were functional and perfused with blood that is apparent from the presence of red blood cells inside the vessels. In addition, mice were treated with EBIN at the time of matrigel injection (FIG. 7C,2; Group 2) or 36 hrs after matrigel (FIG. 7C,3; Group 3). Matrigel plugs were removed at 96 hours, fixed and stained with HE to assess the vessel formation.

[3] = test system: human VEGF-induced vascular leakage; assay: VEGF-induced subcutaneous vascular leakage of albumin-bound Evans Blue; type: in vivo, Balb/cJ mice; conditions: pretreated 1 μM/kg; human VEGF 50 ng/kg intradermal; measured at 620 nm
Method: A study investigating whether injection of the EBIN prevented vascular endothelial growth factor (VEGF)-induced microvascular leakage was carried out. Balb/cJ mice were pretreated with the EBIN peptide (1 μM/kg) or a control peptide (2T→A mutation) and then human VEGF (50 ng/kg body weights) was intradermally injected to induce vascular leakage of albumin-bound Evans Blue (see FIG. 6A). In addition, the formamide-extracted Evans Blue was quantified spectrophotometically at 620 nm and corrected for hemoglobin (740 nm) and skin weight (see FIG. 6B).

[4] = Acute toxicity testing in vivo (eye); design: species or system C57BL/6 mice
Method: Representative images of Fundus Fluorescein Angiography F and corresponding Optical Coherence Tomography (FIG. 12B) at day 8 of intravitreal treatment with EBIN (1 μg/eye).
A short term study is designed to assess safety of administration in vivo. C57BL/6 mice (n=10, 5 mice per group/treatment route) are randomized and divided into two groups. The first group is treated with EBIN in the right eye via eye drops delivered twice daily, 5 μg per eye (10 μl) and, the second group is treated with intravitreal injection of EBIN in the right eye at the maximum dose, 1 μg per eye (2 μl) on day one. The intravitreal injection is performed under ketamine/xylazine (100 mg/5 mg/kg) anesthesia. Both groups are monitored daily for general health including body weight as well as any eye abnormalities including opacity, exophthalmia enophthalmia, conjunctivitis, abnormal secretions or crusting, and corneal ulcers for a period of 8 days. Animals are subsequently subjected to fluorescein angiography and OCT imaging.

[5] = test system: laser-induced choroidal neovascularization (CNV); conditions: 1 μg/eye single intravitreal injection; day 15; versus control peptide
Method: Quantification of the area of fluorescein leakage (FIG. 11D) and lesion (FIG. 11E) using images shown in (FIG. 11A) and (FIG. 11C); n=6-9 mice per group; **, p<0.01. […] Comparison between groups were performed using ANOVA.
To assess the barrier-protective and anti-angiogenic activities of EBIN, EBIN is tested in murine models of CNV. In addition to treatment with EBIN, LEAF™ antibody (a monoclonal rat antibody against mouse VEGF-A) and control peptide (Myr-FAEIPTI), were used as positive and negative experimental controls, respectfully.
Mice were anesthetized with a mixture of ketamine/xylazine (100 mg/5 mg/kg IP) and their pupils were dilated with a topical application of Cyclomydril (Alcon Laboratories, Fort Worth, Tex.). The fundus was viewed with an imaging camera, and laser photocoagulation was induced using the image-guided laser system (Micron IV, Phoenix Research Laboratories, Pleasanton, Calif.). Four laser burns at equal distance from the optic nerve were induced one by one in right eye by a green Argon laser pulse with a wavelength of 532 nm, a fixed diameter of 50 μm, duration of 70 ms, and power levels from 210-250 mW. Appearance of bubble or a small subretinal hemorrhage (diameter <1 mm) at the laser spot serves to indicate rupture of the Bruch's membrane and as confirmation of laser-induced CNV. This procedure was performed only on the right eye of each mouse. […]

[6] = test system: human umbilical vein endothelial cells; assay: In vitro tubulogenesis in 2D matrigel model; type: cell-based; conditions: 1 μM; assessed 16 hours after plating on matrigel
Method: as §1
The effect of EBIN on in vitro tubulogenesis and in vivo angiogenesis was investigated using matrigel models. A single cell suspension of human umbilical vein endothelial cells was plated above matrigel-coated wells in the presence of 1 μM EBIN or control peptide; tube formation was assessed 16 hours later.

endothelial cell = type: cell-based; conditions: data not shown

Row | Compound | release of Ca2+ from ER in response to thrombin (HMVECs) | number of vessels outside of the tumor ([1]; 10 μM/kg intraperitoneal for 4 days) | tumor growth ([1]; intraperitoneal injection at 10 μM/kg body weight for 4 days) | number of vessels / vessel formation in matrigel plugs [2] | subcutaneous vascular leak of albumin-bound Evans Blue [3] | toxicity ([4]; eye drops 5 μg per eye twice daily or intravitreal 1 μg per eye, 8 days, with or without CNV induction) | crystals/precipitates in the eye ([4]; intravitreal 1 μg/eye, day 8) | changes in retinal vasculature, retinal pigment epithelium, choroid, sclera ([4]; intravitreal 1 μg/eye, day 8, angiography and OCT) | vascular leakage (area of fluorescein leakage) [5] | tube formation (tubulogenesis) [6] | number of vessels outside of the tumor ([1]; 5 μM/kg, tail vein) | tumor growth rate ([1]; tail vein injection, 1 μM/kg body weight daily for 7 days) | tumor size ([1]; tail vein injection, 5 μM/kg body weight daily for 7 days) | effect of post-treatment versus treatment on vessel ingrowth ([2]; treatment started 36 hrs after matrigel versus at the time of matrigel injection) | endothelial cell death or cell cycle arrest (endothelial cell)
1 | CC(=O)O[C@H]1C(=O)[C@@]2(C)[C@H]([C@H](OC(=O)c3ccccc3)[C@]3(O)C[C@H](OC(=O)[C@H](O)[C@@H](NC(=O)c4ccccc4)c4ccccc4)C(C)=C1C3(C)C)[C@]1(OC(C)=O)CO[C@@H]1C[C@@H]2O [taxol, reference compound] | inhibits release of Ca^2+ from ER to the same extent as IP3R3 peptide | significantly reduced | significant delay in the tumor growth |  |  |  |  |  |  |  |  |  |  |  | 
2 | FAEIPTI [reference compound] |  |  |  | newly formed blood vessels grew into the matrigel |  |  |  |  |  |  |  |  |  |  | 
3 | FTEIPTI [EBIN] |  |  |  | markedly reduced | significantly inhibited subcutaneous vascular leak | No toxicity was observed | forms small crystals/precipitates inside of various humor | no visible changes | significantly reduced | significantly abolished formation of tubes; also recorded: inhibited tubulogenesis | significantly reduced; also recorded: superior effect as compared to taxol | developed the tumor at the same rate as untreated mice | reduction in the tumor size; also recorded: significantly smaller as compared to control untreated group | post-treatment was as effective as a treatment | did not induce endothelial cell death or cell cycle arrest
